According to patent publication US12491180B2, “Application of compound in treating pneumonia” (SHENZHEN OPTIMUM BIOLOGICAL TECHNOLOGY CO., LTD., priority 2019, dated 2025):
Converted amounts (≈) assume the structure as drawn.

Legend:
[1] = tested on: Klebsiella oxytoca 12391; test: MIC, solid dilution method; assay type: cell-based; conditions: K. ox 12391, CRE clinical isolate, MHA agar, 37° C., 16-20 hours, read-out: MIC
Protocol: (§1) The above-mentioned glycerol-preserved strains were taken out from the −80° C. refrigerator, streaked and inoculated on MHA plates, labeled, and cultured overnight in a 37° C. incubator.
(§2) The inoculum was prepared directly from bacterial suspension, and several recovered colonies were picked and directly prepared into a bacterial suspension with a turbidity of No. 0.5 McFarland units in normal saline, and a 10-fold dilution was made during inoculation.
(§3) 6 bottles of MHA culture medium 500 mL/bottle were prepared, and the pH was adjusted to 7.2-7.4, sterilized at 121° C. for 15 min, and the medium was placed in a 55° C. water bath to keep warm.
(§4) Sterile blank petri dishes were taken, and marked with each FL drug/concentration according to 2-fold dilution, and 10 concentrations of each drug starting from 8 μg/mL were tested.
(§5) […]; 20 mL was aspirated and added to a petri dish consistent with the mark, and then 20 mL of MHA culture medium was added to the rest of the drug-containing culture medium, mixed evenly, that is, the 2-fold diluted drug-containing culture medium; 20 mL was aspirated and added to the petri dish consistent with the mark, and then diluted to the 10th concentration and the […] respectively by repeating the above-mentioned steps, and then poured into the petri dish.
(§6) 4 bacterial control petri dishes without drug were prepared at the same time as a control.
(§7) The positioning needle and the inoculation needle were installed according to the order of placement of the colony on the inoculation plate. After inoculation, a bacterial solution circle was formed on the petri dish. After the bacterial solution was absorbed by the agar, the petri dish was placed in an incubator at 37° C. for overnight incubation (16-20 hours), and then taken out.
(§8) The minimum inhibitory concentrations of the compounds against the CRE and CSE strains were determined by the solid dilution method, and the results are shown in Tables 3 and 4.

[2] = tested on: Klebsiella oxytoca 14151; test: MIC, solid dilution method; assay type: cell-based; conditions: K. ox 14151, CRE clinical isolate, MHA agar, 37° C., 16-20 hours, read-out: MIC
Protocol: as §1, §2, §3, §4, §5, §6, §7, §8

[3] = tested on: Escherichia coli 14828; test: MIC, solid dilution method; assay type: cell-based; conditions: E. coli 14828, CRE clinical isolate, MHA agar, 37° C., 16-20 hours, read-out: MIC
Protocol: as §1, §2, §3, §4, §5, §6, §7, §8

[4] = tested on: Klebsiella oxytoca 14153; test: MIC, solid dilution method; assay type: cell-based; conditions: K. ox 14153, CRE clinical isolate, MHA agar, 37° C., 16-20 hours, read-out: MIC
Protocol: as §1, §2, §3, §4, §5, §6, §7, §8

[5] = tested on: Escherichia coli 13897; test: MIC, solid dilution method; assay type: cell-based; conditions: E. coli 13897, CRE clinical isolate, MHA agar, 37° C., 16-20 hours, read-out: MIC
Protocol: as §1, §2, §3, §4, §5, §6, §7, §8

[6] = tested on: Escherichia coli 11119; test: MIC, solid dilution method; assay type: cell-based; conditions: E. coli 11119, CRE clinical isolate, MHA agar, 37° C., 16-20 hours, read-out: MIC
Protocol: as §1, §2, §3, §4, §5, §6, §7, §8

[7] = tested on: Klebsiella oxytoca 6777; test: MIC, solid dilution method; assay type: cell-based; conditions: K. ox 6777, CRE clinical isolate, MHA agar, 37° C., 16-20 hours, read-out: MIC
Protocol: as §1, §2, §3, §4, §5, §6, §7, §8

[8] = tested on: E. coli 11256; test: MIC, solid dilution method; assay type: cell-based; conditions: Escherichia coli; E. coli 11256; MHA agar, 37° C., 16-20 hours; read-out: MIC
Protocol: as §1, §2, §3, §4, §5, §6, §7, §8

[9] = tested on: Citrobacter freundii 7646; test: MIC, solid dilution method; assay type: cell-based; conditions: C.f 7646, CSE clinical isolate, MHA agar, 37° C., 16-20 hours, read-out: MIC
Protocol: (§9) CRE Citrobacter freundii 9434, 9484 and CSE Citrobacter freundii 7646, a total of 3 strains;
as §1, §2, §3, §4, §5, §6, §7, §8

[10] = tested on: Citrobacter freundii 9434; test: MIC, solid dilution method; assay type: cell-based; conditions: C.f 9434, CRE clinical isolate, MHA agar, 37° C., 16-20 hours, read-out: MIC
Protocol: as §9, §1, §2, §3, §4, §5, §6, §7, §8

[11] = tested on: Citrobacter freundii 9484; test: MIC, solid dilution method; assay type: cell-based; conditions: C.f 9484, CRE clinical isolate, MHA agar, 37° C., 16-20 hours, read-out: MIC
Protocol: as §9, §1, §2, §3, §4, §5, §6, §7, §8

[12] = tested on: Enterobacter aerogenes 8193; test: MIC, solid dilution method; assay type: cell-based; conditions: Klebsiella aerogenes; E. ae 8193, CRE clinical isolate; MHA agar, 37° C., 16-20 hours; read-out: MIC
Protocol: CRE Enterobacter aerogenes 8193, a total of 1 strain;
as §1, §2, §3, §4, §5, §6, §7, §8

[13] = tested on: E. ae 14186; test: MIC, solid dilution method; assay type: cell-based, Enterobacter aerogenes; conditions: Klebsiella aerogenes; E. ae 14186; MHA agar, 37° C., 16-20 hours; read-out: MIC
Protocol: as §1, §2, §3, §4, §5, §6, §7, §8

[14] = tested on: 16 clinical CRE strains; test: MIC50, MIC90 and MIC range against 16 clinical CRE strains; assay type: cell-based; conditions: 16 clinical CRE strains; for MIC50: read-out: MIC50; for MIC90: read-out: MIC90
Protocol: as §1, §2, §3, §4, §5, §6, §7, §8

[15] = tested on: Acinetobacter baumannii 6383; test: MIC, solid dilution method; assay type: cell-based; conditions: A.B 6383, CRE clinical isolate, MHA agar, 37° C., 16-20 hours, read-out: MIC
Protocol: (§10) CRE Acinetobacter baumannii 8476, 6383, a total of 2 strains; CRE Serratia marcescens 14541, a total of 1 strain; all collected in the Department of Infectious Diseases, West China Hospital, Chengdu, Sichuan Province, and kept in our laboratory.
as §1, §2, §3, §4, §5, §6, §7, §8

[16] = tested on: Serratia marcescens 14541; test: MIC, solid dilution method; assay type: cell-based; conditions: Sma 14541, CRE clinical isolate, MHA agar, 37° C., 16-20 hours, read-out: MIC
Protocol: as §10, §1, §2, §3, §4, §5, §6, §7, §8

[17] = tested on: Acinetobacter baumannii 8476; test: MIC, solid dilution method; assay type: cell-based; conditions: A.B 8476, CRE clinical isolate, MHA agar, 37° C., 16-20 hours, read-out: MIC
Protocol: as §10, §1, §2, §3, §4, §5, §6, §7, §8

[18] = tested on: Enterobacter cloacae 11090; test: MIC, solid dilution method; assay type: cell-based; conditions: E. cl 11090, CRE clinical isolate, MHA agar, 37° C., 16-20 hours, read-out: MIC
Protocol: as §1, §2, §4, §6, §7

[19] = tested on: Enterobacter cloacae 14653; test: MIC, solid dilution method; assay type: cell-based; conditions: E. cl 14653, CRE clinical isolate, MHA agar, 37° C., 16-20 hours, read-out: MIC
Protocol: as §1, §2, §4, §6, §7

[20] = tested on: Enterobacter cloacae 11699; test: MIC, solid dilution method; assay type: cell-based; conditions: E. cl 11699, CSE clinical isolate, MHA agar, 37° C., 16-20 hours, read-out: MIC
Protocol: as §1, §2, §4, §6, §7

## CC1(C)[C@H](NC(=O)/C(=N\O[C@@H](COc2ccc(C(=N)N[C@@H]3CCCNC3)cc2)C(=O)O)c2csc(N)n2)C(=O)N1OS(=O)(=O)O [AIC499, reference compound]
[1]
  MIC: 1 µg/mL (≈ 1.5 µM)
[2]
  MIC: 0.5 µg/mL (≈ 0.748 µM)
[3]
  MIC: 0.5 µg/mL (≈ 0.748 µM)
[4]
  MIC: 1 µg/mL (≈ 1.5 µM)
[5]
  MIC: 0.25 µg/mL (≈ 0.374 µM)
[6]
  MIC: > 8 µg/mL
[7]
  MIC: 0.5 µg/mL (≈ 0.748 µM)
[8]
  MIC: 0.06 µg/mL (≈ 0.0897 µM)
[9]
  MIC: 0.5 µg/mL (≈ 0.748 µM)
[10]
  MIC: 0.5 µg/mL (≈ 0.748 µM)
[11]
  MIC: 0.25 µg/mL (≈ 0.374 µM)
[12]
  MIC: 1 µg/mL (≈ 1.5 µM)
[13]
  MIC: 1 µg/mL (≈ 1.5 µM)
[14]
  MIC50: 2 µg/mL (≈ 2.99 µM)
  MIC90: > 8 µg/mL
[15]
  MIC: 8 µg/mL (≈ 12 µM)
[16]
  MIC: > 8 µg/mL
[17]
  MIC: 2 µg/mL (≈ 2.99 µM)
[18]
  MIC: 2 µg/mL (≈ 2.99 µM)
[19]
  MIC: 1 µg/mL (≈ 1.5 µM)
[20]
  MIC: 0.06 µg/mL (≈ 0.0897 µM)

## CC1(C)[C@H](NC(=O)/C(=N\O[C@@H](COc2ccc3c(c2)CN(C(=N)N(CCCN)CCCN)C3)C(=O)O)c2csc(N)n2)C(=O)N1OS(=O)(=O)O [Compound 32]
[1]
  MIC: 0.125 µg/mL (≈ 0.169 µM)
[2]
  MIC: 0.125 µg/mL (≈ 0.169 µM)
[3]
  MIC: 0.06 µg/mL (≈ 0.081 µM)
[4]
  MIC: 0.125 µg/mL (≈ 0.169 µM)
[5]
  MIC: 0.06 µg/mL (≈ 0.081 µM)
[6]
  MIC: 4 µg/mL (≈ 5.4 µM)
[7]
  MIC: 0.125 µg/mL (≈ 0.169 µM)
[8]
  MIC: < 0.015 µg/mL
[9]
  MIC: 0.06 µg/mL (≈ 0.081 µM)
[10]
  MIC: 0.06 µg/mL (≈ 0.081 µM)
[11]
  MIC: 0.03 µg/mL (≈ 0.0405 µM)
[12]
  MIC: 0.5 µg/mL (≈ 0.675 µM)
[13]
  MIC: 0.125 µg/mL (≈ 0.169 µM)
[14]
  MIC range: 0.06 to 4 µg/mL
  MIC50: 0.125 µg/mL (≈ 0.169 µM)
  MIC90: 4 µg/mL (≈ 5.4 µM)
[15]
  MIC: 2 µg/mL (≈ 2.7 µM)
[16]
  MIC: 4 µg/mL (≈ 5.4 µM)
[17]
  MIC: 2 µg/mL (≈ 2.7 µM)
[18]
  MIC: 0.5 µg/mL (≈ 0.675 µM)
[19]
  MIC: 0.25 µg/mL (≈ 0.337 µM)
[20]
  MIC: 0.03 µg/mL (≈ 0.0405 µM)

## CC1(C)[C@H](NC(=O)/C(=N\O[C@@H](COc2ccc3c(c2)CN(C(=N)N[C@@H]2CCCNC2)C3)C(=O)O)c2csc(N)n2)C(=O)N1OS(=O)(=O)O [Compound 41]
[1]
  MIC: 0.25 µg/mL (≈ 0.352 µM)
[2]
  MIC: 0.25 µg/mL (≈ 0.352 µM)
[3]
  MIC: 0.125 µg/mL (≈ 0.176 µM)
[4]
  MIC: 0.25 µg/mL (≈ 0.352 µM)
[5]
  MIC: 0.06 µg/mL (≈ 0.0845 µM)
[6]
  MIC: 4 µg/mL (≈ 5.64 µM)
[7]
  MIC: 0.25 µg/mL (≈ 0.352 µM)
[8]
  MIC: 0.03 µg/mL (≈ 0.0423 µM)
[9]
  MIC: 0.125 µg/mL (≈ 0.176 µM)
[10]
  MIC: 0.125 µg/mL (≈ 0.176 µM)
[11]
  MIC: 0.06 µg/mL (≈ 0.0845 µM)
[12]
  MIC: 0.5 µg/mL (≈ 0.704 µM)
[13]
  MIC: 0.25 µg/mL (≈ 0.352 µM)
[14]
  MIC50: 1 µg/mL (≈ 1.41 µM)
  MIC90: > 8 µg/mL
[15]
  MIC: 4 µg/mL (≈ 5.64 µM)
[16]
  MIC: > 8 µg/mL
[17]
  MIC: 2 µg/mL (≈ 2.82 µM)
[18]
  MIC: 1 µg/mL (≈ 1.41 µM)
[19]
  MIC: 0.5 µg/mL (≈ 0.704 µM)
[20]
  MIC: 0.06 µg/mL (≈ 0.0845 µM)
